Results on 1 compound are retold here after patent publication US20220087970A1, “PREVENTION OF ANESTHETIC-INDUCED NEUROCOGNITIVE DYSFUNCTION” (The Johns Hopkins University, priority 2019, published 2022).

Structures are written as SMILES.

What all share (assay type): in vivo
For series [1], the system named is caspase-3. The series is described as follows: Western blot for cleaved caspase-3 (apoptosis) after PND7 exposure. The following applies: PND7 mice, 4 h treatment (1.5% ISO in 100% O2 or peptide 8 mg/kg ip), 2 h following cessation of exposure. As for the experimental part: 1.3.2 Anesthesia, Peptide, and Molsidomine Injections. PND7 control and experimental mice were placed in a clear plastic cone and body temperature maintained by a heating blanket set to 35° C. Vital signs and physiological monitoring were assessed using PhysioSuite® (Kent Scientific Corporation, Torrington, Conn., USA) and blood gasses were collected arterially. […] Note that lower concentrations of 02 can be used, e.g., between 20% to 100% 02, including 20%, 25%, 30%, 35%, 40%, 45%, 50%, 55%, 60%, 65%, 70%, 75%, 80%, 85%, 90%, 95%, 96%, 97%, 98%, 99%, and 100% 02. Naïve animals were left with the dams. Anesthesia was initiated with 2.4% ISO in 100% oxygen for 2 min and tapered down to 1.5% within 15 min. Exposure to 1.5% ISO was continued for 3 hours and 45 min (total 4 hours ISO). Control ‘CON’ animals were exposed to 100% oxygen only. At the end of the exposure animals were maintained in oxygen on the heating blanket for 10 min then returned to dams. […] Tao and Johns, 2008. A single injection of peptide was given ip. Separate peptide cohorts were injected in parallel with mice undergoing exposure to anesthesia or O2 control. […]
1.3.3 Western Blotting. […] Proteins were detected by enhanced chemiluminescence (Amersham, Piscataway, N.J.). […]

Series [2] deals with C57BL6 mice. The experiment in a line: Novel object recognition at PND21. The following applies: mean ±SD, in s (unit assumed). The procedure:
1.3.2 Anesthesia, Peptide, and Molsidomine Injections. PND7 control and experimental mice were placed in a clear plastic cone and body temperature maintained by a heating blanket set to 35° C. Vital signs and physiological monitoring were assessed using PhysioSuite® (Kent Scientific Corporation, Torrington, Conn., USA) and blood gasses were collected arterially. […] Note that lower concentrations of 02 can be used, e.g., between 20% to 100% 02, including 20%, 25%, 30%, 35%, 40%, 45%, 50%, 55%, 60%, 65%, 70%, 75%, 80%, 85%, 90%, 95%, 96%, 97%, 98%, 99%, and 100% 02. Naïve animals were left with the dams. Anesthesia was initiated with 2.4% ISO in 100% oxygen for 2 min and tapered down to 1.5% within 15 min. Exposure to 1.5% ISO was continued for 3 hours and 45 min (total 4 hours ISO). Control ‘CON’ animals were exposed to 100% oxygen only. At the end of the exposure animals were maintained in oxygen on the heating blanket for 10 min then returned to dams. […] Tao and Johns, 2008. A single injection of peptide was given ip. Separate peptide cohorts were injected in parallel with mice undergoing exposure to anesthesia or O2 control. Purification of fusion peptides was performed by Creative BioMart (Shirley, N.Y.) and verified by Coomassie blue staining and Western blot analysis and then stored in 10% glycerol/phosphate buffered saline at −80° C. until use. The Tat-PSD-95 PDZ2WT and MUT plasmids used to generate proteins containing an amino-terminal, in-frame, 11-amino-acid, minimal transduction domain (residues 47-57 of human immunodeficiency virus Tat protein) termed Tat. […] Fang et al., 2003. The NO donor molsidomine [(N-[ethoxycarbonyl]-3-[4-morpholinosydnomine] (Sigma, St. Louis, Mo.) was injected at 4 mg/kg into mice ip in 100 μL sterile saline as previously described. The NO donor was added immediately following cessation of anesthesia or control (O2) exposure, i.e., the NO donor was injected 4 hours after onset of anesthesia. One of ordinary skill in the art upon review of the present disclosure would appreciate that the NO donor could be administered at other times during anesthesia, including at the onset of anesthesia. Control animals were injected ip with the vehicle (saline).
1.3.7 Novel Object Recognition. The novel object recognition (NOR) procedure was based upon the original Ennaceur et al., 1988, procedure and was used to assess nonspatial hippocampal memory. Clark et al., 2000; Baker and Kim, 2002; Reger et al., 2009. It consisted of a training ‘familiarization’ phase followed by a testing phase. During training, mice were allowed to freely explore within an opaque box (40 cm W×40 cm L×34 cm H) containing two identical objects for 10 min. Data were recorded with a video camera and time spent with each object was recorded using ANYmaze software (Stoelting). Object investigation time was determined by the amount of time the mouse spent in the zone immediately surrounding the object. […] After 2 h, object recognition was tested, using the same procedure as in training except that a novel object was substituted for one of the familiar training objects and mice were allowed to explore for 5 min. Mice inherently prefer to explore novel objects; thus, a preference for the novel object indicates intact memory for the familiar object.

Series [3] concerns NR1. The series is described as follows: Western blot of hippocampal synaptic fractions: NR1. The following applies: one day after PND7 mice exposed to isoflurane (1.5% ISO in O2, 4 h). The procedure: One day after PND7 mice were exposed to isoflurane (1.5% ISO in O2, 4 h), we harvested hippocampal tissues for Western blotting to assess the expression of receptors and MAGUKs. […] (N=9). A *p<0.05 was considered significant. […] Data shown as % actin;
(Immunoblotting shows a protein as a band on a membrane.)

Where [4] appears, read: PSD93KO mice exposed to ISO at PND7, tested at PND21.
[5] abbreviates: WT mice exposed at PND7, tested at PND21.

Turning to `FC(F)OC(Cl)C(F)(F)F` (racemic) [ISO, (RS)-2-chloro-2-(difluoromethoxy)-1,1,1-trifluoroethane], the “cleaved caspase-3 (Western blot)” value in series [1] is on record as “did not yield any detectable cleaved caspase”. The “investigation time of the known object” value in series [2] (setting [4]) is 29±13; in series [2] (setting [5]) it was 18±12. Moreover, the “investigation time of the novel object” value was found to be 42±20 in series [2] (setting [4]) and 29±11 in series [2] (setting [5]). Also, the “amount of NR1 in synaptic fractions” value in series [3] is “decrease”.
